Experimental findings from BindingDB's records for PubMed 34998058 (Central South University, 2022) are described below.

Data set [1] concerns the target Maltase-glucoamylase (Homo sapiens, UniProt O43451). Briefly: Inhibition of alpha-glucosidase (unknown origin).
Data set [2] is described as follows: Inhibition of P-gp in human K562/A02 cells assessed as adriamycin IC50 at 6 ug/ml.
Data set [3] is described as follows: Inhibition of P-gp in human K562/A02 cells assessed as adriamycin IC50 at 10 ug/ml.
Data set [4] in a line: Inhibition of P-gp in human K562/A02 cells assessed as adriamycin IC50 at 2 ug/ml.
Data set [5] can be described thus: Inhibition of P-gp in human K562 cells assessed as adriamycin IC50 at 8 ug/ml.
Data set [6] can be described thus: Inhibition of P-gp in human K562 cells assessed as adriamycin IC50 at 10 ug/ml.
Data set [7] in a line: Inhibition of P-gp in human K562 cells assessed as adriamycin IC50 at 4 ug/ml.
Data set [8] in a line: Inhibition of P-gp in human K562 cells assessed as adriamycin IC50 at 6 ug/ml.
The nature of data set [9]: Inhibition of P-gp in human K562/A02 cells assessed as adriamycin IC50 at 4 ug/ml.
Data set [10] can be described thus: Inhibition of P-gp in human K562/A02 cells assessed as adriamycin IC50 at 8 ug/ml.
Data set [11] in a line: Inhibition of P-gp in human K562 cells assessed as adriamycin IC50 at 2 ug/ml.

In general, IC50 refers to the concentration that gives 50% inhibition.

Chain of Maltase-glucoamylase (O43451 whole entry): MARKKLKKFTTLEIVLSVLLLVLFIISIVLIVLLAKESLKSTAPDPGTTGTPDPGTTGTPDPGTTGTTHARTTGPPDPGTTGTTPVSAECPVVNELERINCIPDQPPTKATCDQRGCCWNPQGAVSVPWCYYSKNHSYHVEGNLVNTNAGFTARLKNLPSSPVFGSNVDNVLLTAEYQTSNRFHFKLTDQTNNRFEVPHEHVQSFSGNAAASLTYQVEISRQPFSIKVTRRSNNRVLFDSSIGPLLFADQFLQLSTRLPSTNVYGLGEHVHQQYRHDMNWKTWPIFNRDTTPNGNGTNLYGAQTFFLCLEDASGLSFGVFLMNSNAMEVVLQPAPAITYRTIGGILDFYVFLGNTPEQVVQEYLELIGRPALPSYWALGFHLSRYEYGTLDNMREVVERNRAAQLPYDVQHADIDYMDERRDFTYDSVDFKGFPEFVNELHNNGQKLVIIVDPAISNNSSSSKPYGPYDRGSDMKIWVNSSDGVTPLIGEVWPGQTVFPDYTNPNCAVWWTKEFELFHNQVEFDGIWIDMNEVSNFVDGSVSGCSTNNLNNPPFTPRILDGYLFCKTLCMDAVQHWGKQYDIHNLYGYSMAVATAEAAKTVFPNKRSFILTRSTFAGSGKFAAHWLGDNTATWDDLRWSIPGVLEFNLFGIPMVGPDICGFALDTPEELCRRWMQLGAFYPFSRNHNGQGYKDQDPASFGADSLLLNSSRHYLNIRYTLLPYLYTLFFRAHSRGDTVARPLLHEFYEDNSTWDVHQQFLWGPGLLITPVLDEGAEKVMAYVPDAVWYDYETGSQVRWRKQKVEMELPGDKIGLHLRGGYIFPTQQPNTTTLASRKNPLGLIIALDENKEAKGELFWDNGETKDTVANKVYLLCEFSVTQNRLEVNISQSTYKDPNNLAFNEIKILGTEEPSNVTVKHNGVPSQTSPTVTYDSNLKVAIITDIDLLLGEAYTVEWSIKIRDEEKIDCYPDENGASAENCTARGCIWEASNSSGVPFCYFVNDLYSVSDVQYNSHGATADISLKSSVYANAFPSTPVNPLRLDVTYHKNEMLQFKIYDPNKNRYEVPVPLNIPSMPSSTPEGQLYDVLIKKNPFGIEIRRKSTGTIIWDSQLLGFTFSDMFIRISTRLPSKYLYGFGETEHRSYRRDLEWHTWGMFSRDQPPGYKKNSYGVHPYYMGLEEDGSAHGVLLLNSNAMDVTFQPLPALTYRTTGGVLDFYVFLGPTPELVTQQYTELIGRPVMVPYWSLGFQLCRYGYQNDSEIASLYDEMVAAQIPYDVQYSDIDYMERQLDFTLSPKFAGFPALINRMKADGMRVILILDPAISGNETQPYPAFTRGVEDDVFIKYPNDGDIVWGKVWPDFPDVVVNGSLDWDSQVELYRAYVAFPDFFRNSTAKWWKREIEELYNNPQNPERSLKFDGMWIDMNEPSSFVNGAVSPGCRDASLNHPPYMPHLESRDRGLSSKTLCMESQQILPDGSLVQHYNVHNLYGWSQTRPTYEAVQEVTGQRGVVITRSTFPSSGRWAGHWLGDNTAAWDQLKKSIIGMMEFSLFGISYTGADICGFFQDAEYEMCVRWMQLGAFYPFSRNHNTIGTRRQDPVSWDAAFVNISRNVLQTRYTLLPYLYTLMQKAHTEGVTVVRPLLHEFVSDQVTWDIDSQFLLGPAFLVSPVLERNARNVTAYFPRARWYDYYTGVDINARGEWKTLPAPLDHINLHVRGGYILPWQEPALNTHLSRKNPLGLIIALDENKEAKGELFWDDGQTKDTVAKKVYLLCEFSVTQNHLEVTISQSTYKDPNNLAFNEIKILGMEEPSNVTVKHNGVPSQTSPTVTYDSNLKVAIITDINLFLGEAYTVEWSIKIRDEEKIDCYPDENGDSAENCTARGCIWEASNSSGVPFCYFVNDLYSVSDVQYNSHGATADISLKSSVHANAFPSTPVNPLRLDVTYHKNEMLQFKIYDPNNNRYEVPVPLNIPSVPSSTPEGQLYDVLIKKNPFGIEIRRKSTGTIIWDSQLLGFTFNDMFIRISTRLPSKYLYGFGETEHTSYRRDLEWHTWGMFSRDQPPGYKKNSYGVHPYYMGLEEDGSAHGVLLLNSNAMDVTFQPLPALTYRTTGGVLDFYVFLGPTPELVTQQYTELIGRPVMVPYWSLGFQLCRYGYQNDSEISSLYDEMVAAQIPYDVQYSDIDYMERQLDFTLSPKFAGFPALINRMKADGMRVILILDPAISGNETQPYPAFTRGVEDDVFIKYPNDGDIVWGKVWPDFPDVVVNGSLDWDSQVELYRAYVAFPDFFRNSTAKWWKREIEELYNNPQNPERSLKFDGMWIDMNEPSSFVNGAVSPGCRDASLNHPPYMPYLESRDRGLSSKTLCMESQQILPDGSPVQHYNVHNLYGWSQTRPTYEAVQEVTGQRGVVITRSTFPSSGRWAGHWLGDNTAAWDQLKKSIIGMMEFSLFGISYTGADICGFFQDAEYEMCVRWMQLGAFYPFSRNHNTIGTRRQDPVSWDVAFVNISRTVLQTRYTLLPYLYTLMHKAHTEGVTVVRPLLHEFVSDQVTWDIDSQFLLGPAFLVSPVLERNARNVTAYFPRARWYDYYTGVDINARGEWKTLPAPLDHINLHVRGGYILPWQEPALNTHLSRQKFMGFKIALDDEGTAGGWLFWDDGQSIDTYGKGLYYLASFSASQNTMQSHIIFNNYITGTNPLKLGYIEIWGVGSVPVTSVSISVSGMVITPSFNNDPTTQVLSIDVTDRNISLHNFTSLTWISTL

`Cc1nc2ccccc2n(CC(=O)N/N=C/c2ccc(OCCn3cc(CN4CCCC4)nn3)cc2)c1=O` came in with an IC50 in data set [1] of 45.8 µM.

For `CC(C)c1nc2ccc(N3C(=O)CSC3c3ccc([N+](=O)[O-])cc3)cc2[nH]c1=O` (centres undefined), the IC50 in [1] was 301 µM.

`O=c1[nH]c2ccccc2n2c(-c3ccc(Cl)c(Cl)c3)ccc12` registered a half-maximal inhibitory concentration (IC50) in data set [1] of 13 µM.

`COc1ccc(C(=O)Nc2cccc(C(=O)/C=C3/Nc4ccccc4NC3=O)c2)cc1` had a half-maximal inhibitory concentration (IC50) in data set [1] of 166 µM.

Regarding `Cc1nc2ccccc2n(CC(=O)N/N=C/c2ccc(OCCn3cc(CN4CCOCC4)nn3)cc2)c1=O`, in data set [1], the half-maximal inhibitory concentration (IC50) is 41.3 µM.

In data set [1], `Cc1nc2ccccc2n(CC(=O)N/N=C/c2ccc(OCCn3cc(CN4CCCCC4)nn3)cc2)c1=O` registered an IC50 of 42.2 µM.

For the molecule `O=C(/C=C/c1ccccc1)/C=C1/Nc2ccccc2NC1=O`, the IC50 in data set [1] was determined as 40.1 µM.

With `O=c1[nH]c2ccccc2nc1N/N=C/c1cccs1`, the IC50 in data set [1] is 9.99 µM.

With `O=c1[nH]c2ccccc2n2c(-c3ccc([N+](=O)[O-])cc3[N+](=O)[O-])ccc12`, inhibition in data set [1] was half-maximal at 23 µM (IC50).

In the case of `Cc1ccc(-n2cc(COc3ccc(/C=N/NC(=O)Cn4c(=O)c(C)nc5ccccc54)cc3)nn2)cc1`, in [1], the IC50 worked out at 48.2 µM.

Take `Cc1nc2cc(F)ccc2[nH]c1=O`: the IC50 was 7.52 µM in [2]; 6.28 µM in data set [3]; 12.9 µM in data set [4]; 0.729 µM in data set [5]; 0.561 µM in [6]; 0.673 µM in data set [7]. For the same molecule, the IC50 in data set [8] worked out at 0.841 µM; in data set [9], 9.03 µM; in [10], 5.78 µM; in data set [11], 0.785 µM.

Take `Cc1ccc(NC(=O)Cn2c(=O)c(C)nc3ccccc32)c([N+](=O)[O-])c1`: the IC50 in data set [1] is 83.8 µM.

As for `COc1ccc(C2SCC(=O)N2c2ccc3nc(Cc4ccc(O)cc4)c(=O)[nH]c3c2)cc1` (centres undefined), the concentration for half-maximal inhibition (IC50) in [1] was determined as 276 µM.

The molecule `O=c1[nH]c2ccccc2n2c(-c3ccc(O)cc3O)ccc12` yielded a 50% inhibitory concentration (IC50) in data set [1] of 12.9 µM.

Turning to `Cc1ccc2[nH]c(=O)c(C)nc2c1`, the concentration for half-maximal inhibition (IC50) in data set [2] came out at 10.5 µM; in data set [3] it was 7.8 µM; in data set [4], 20.1 µM; in data set [5], 0.746 µM; in data set [6], 0.688 µM; in data set [7] it was 0.746 µM. Besides, the concentration for half-maximal inhibition (IC50) was found to be 0.516 µM in [8], 15 µM in [9], 8.95 µM in data set [10] and 0.803 µM in data set [11].

Take `COc1cccc(/C=N/Nc2nc3ccccc3[nH]c2=O)c1`: in [1], half-maximal inhibition (IC50) was put at 13.9 µM.
